{"source": "patent US20220226299A1", "about": "(NIPPON CHEMIPHAR CO., LTD., priority 2019, published 2022)", "data": [{"target": "T1, human Cav3.2 channels (Homo sapiens, UniProt O95180)", "T1 construct": "human Cav3.2 channel ORF (Open Reading Frame) gene; expressed in transfected cells; host or cells: HEK293 cells (ATCC No. CRL-1573), pcDNA3.1(+) plasmid", "T1 sequence (O95180 whole entry)": "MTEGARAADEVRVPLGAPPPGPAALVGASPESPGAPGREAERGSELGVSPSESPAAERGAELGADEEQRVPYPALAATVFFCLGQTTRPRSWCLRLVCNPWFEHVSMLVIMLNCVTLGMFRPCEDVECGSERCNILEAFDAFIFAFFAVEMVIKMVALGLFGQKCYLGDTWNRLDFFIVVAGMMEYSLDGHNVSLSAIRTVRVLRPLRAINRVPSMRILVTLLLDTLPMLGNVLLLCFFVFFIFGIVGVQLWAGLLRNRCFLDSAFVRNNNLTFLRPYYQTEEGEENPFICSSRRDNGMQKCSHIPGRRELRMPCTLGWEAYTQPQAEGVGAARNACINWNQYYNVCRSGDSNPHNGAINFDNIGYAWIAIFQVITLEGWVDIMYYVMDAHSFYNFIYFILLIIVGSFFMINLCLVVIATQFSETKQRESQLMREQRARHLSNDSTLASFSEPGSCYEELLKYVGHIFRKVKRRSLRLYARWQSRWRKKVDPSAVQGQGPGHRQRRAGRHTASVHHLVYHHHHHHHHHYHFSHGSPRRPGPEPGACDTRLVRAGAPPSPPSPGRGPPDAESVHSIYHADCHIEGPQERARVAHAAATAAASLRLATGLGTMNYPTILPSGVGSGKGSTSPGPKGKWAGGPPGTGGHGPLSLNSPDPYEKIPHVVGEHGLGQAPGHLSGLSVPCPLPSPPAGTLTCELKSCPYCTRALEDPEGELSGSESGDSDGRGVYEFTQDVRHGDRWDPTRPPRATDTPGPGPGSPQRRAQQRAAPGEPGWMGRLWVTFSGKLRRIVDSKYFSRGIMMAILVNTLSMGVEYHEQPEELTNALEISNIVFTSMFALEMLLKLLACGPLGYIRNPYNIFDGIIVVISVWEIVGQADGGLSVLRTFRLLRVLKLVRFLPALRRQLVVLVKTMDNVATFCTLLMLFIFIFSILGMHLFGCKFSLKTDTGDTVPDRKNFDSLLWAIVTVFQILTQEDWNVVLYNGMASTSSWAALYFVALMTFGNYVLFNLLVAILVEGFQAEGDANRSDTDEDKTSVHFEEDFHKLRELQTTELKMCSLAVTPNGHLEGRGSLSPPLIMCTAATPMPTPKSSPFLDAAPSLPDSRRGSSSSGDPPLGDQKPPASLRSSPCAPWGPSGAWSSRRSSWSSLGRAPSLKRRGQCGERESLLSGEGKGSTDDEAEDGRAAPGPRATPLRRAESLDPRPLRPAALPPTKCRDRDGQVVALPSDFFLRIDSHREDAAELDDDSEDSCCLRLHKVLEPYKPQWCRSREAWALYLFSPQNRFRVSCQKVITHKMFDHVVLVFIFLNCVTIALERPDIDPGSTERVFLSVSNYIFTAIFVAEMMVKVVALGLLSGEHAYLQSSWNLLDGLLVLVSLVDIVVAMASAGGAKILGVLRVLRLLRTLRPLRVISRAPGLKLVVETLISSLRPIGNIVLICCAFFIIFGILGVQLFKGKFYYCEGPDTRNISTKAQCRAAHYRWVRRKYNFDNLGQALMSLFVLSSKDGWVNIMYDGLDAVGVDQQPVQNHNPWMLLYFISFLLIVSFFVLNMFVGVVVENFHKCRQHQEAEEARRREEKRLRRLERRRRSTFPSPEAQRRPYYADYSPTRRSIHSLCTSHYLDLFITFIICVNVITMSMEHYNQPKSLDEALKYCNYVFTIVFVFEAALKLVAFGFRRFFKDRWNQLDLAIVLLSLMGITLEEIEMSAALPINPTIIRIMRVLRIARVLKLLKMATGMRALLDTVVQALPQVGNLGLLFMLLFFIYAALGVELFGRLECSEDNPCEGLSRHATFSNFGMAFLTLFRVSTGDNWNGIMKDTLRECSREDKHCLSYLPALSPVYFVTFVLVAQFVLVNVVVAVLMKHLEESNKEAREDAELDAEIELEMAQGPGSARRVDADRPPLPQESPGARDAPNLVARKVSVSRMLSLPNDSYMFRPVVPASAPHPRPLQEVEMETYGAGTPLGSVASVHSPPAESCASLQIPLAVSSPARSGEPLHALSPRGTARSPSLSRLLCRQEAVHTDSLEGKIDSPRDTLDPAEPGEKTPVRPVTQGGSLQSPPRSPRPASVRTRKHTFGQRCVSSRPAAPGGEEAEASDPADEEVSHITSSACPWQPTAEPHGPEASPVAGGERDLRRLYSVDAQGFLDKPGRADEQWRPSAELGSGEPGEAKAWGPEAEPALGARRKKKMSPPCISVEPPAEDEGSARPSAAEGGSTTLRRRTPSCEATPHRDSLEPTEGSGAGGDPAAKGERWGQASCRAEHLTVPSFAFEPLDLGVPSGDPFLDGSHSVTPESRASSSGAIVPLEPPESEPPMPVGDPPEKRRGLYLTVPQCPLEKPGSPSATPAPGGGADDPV", "assay": "T-type calcium blocking action: intracellular calcium (Fluo-4 AM fluorescence) in HEK293 cells steadily expressing human Cav3.2 channels", "assay_type": "cell-based", "details": "HEK293 cells expressing human Cav3.2; KCl-stimulated calcium influx, Fluo-4 fluorescence; Tables 1 to 3", "how_it_was_run": "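Fluo-4 AM-loaded stable HEK293 cells were preincubated 15 min at RT with compound (0.1% DMSO final) in choline-based buffer (pH 7.3). Gramicidin was added, then KCl-induced calcium influx was read at 485/510 nm for 10 s. Percent block came from peak rise over baseline, and IC50 from log-concentration plots.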", "units": {"IC50": "nM"}, "values": [{"smiles": "C[C@@]1(NC(=O)Cc2ccc(N3CCOCC3)cc2)CCN(c2cncc(C(F)(F)F)c2)C1", "note": "[Example 147, (R)—N-(3-methyl-1-(5-(trifluoromethyl)pyridin-3-yl)pyrrolidin-3-yl)-2-(4-morpholinophenyl)acetamide]", "IC50": 170}, {"smiles": "C[C@@]1(NC(=O)Cc2ccc(C3CC3)cc2)CCN(c2cncc(C(F)(F)F)c2)C1", "note": "[Example 148, (R)-2-(4-cyclopropylphenyl)-N-(3-methyl-1-(5-(trifluoromethyl)pyridin-3-yl)pyrrolidin-3-yl)acetamide]", "IC50": 200}, {"smiles": "O=C(Cc1ccc(N2C3CCC2COC3)cc1)N[C@@H]1CCN(c2cncc(C(F)(F)F)c2)C1", "note": "[Example 149, 2-(4-(3-Oxa-8-azabicyclo[3.2.1]octan-8-yl)phenyl)-N—((R)-1-(5-(trifluoromethyl)pyridin-3-yl)pyrrolidin-3-yl) acetamide]", "IC50": 69}, {"smiles": "O=C(Cc1ccc(N2C3CCC2COC3)cc1)N[C@@H]1CCN(c2ccc(C(F)(F)F)nc2)C1", "note": "[Example 150, 2-(4-(3-Oxa-8-azabicyclo[3.2.1]octan-8-yl)phenyl)-N—((R)-1-(6-(trifluoromethyl)pyridin-3-yl)pyrrolidin-3-yl)acetamide]", "IC50": 400}, {"smiles": "O=C(Cc1ccc2ocnc2c1)N[C@@H]1CCN(c2ccc(C(F)(F)F)nc2)C1", "note": "[Example 151, (R)-2-(benzo[d]oxazol-5-yl)-N-(1-(6-(trifluoromethyl)pyridin-3-yl)pyrrolidin-3-yl)acetamide]", "IC50": 2700}, {"smiles": "O=C(Cc1ccc2ocnc2c1)N[C@@H]1CCN(c2cncc(C(F)(F)F)c2)C1", "note": "[Example 152, (R)-2-(benzo[d]oxazol-5-yl)-N-(1-(5-(trifluoromethyl)pyridin-3-yl)pyrrolidin-3-yl)acetamide]", "IC50": 1300}, {"smiles": "Cc1nc2cc(CC(=O)N[C@@H]3CCN(c4cncc(C(F)(F)F)c4)C3)ccc2o1", "note": "[Example 153, (R)-2-(2-methylbenzo[d]oxazol-5-yl)-N-(1-(5-(trifluoromethyl)pyridin-3-yl)pyrrolidin-3-yl)acetamide]", "IC50": 570}, {"smiles": "Cc1nc2cc(CC(=O)N[C@@H]3CCN(c4ccc(C(F)(F)F)nc4)C3)ccc2o1", "note": "[Example 154, (R)-2-(2-methylbenzo[d]oxazol-5-yl)-N-(1-(6-(trifluoromethyl)pyridin-3-yl)pyrrolidin-3-yl)acetamide]", "IC50": 1000}, {"smiles": "O=C(Cc1ccc(N2C[C@@H]3CC[C@H]2CO3)cc1)N[C@@H]1CCN(c2cncc(C(F)(F)F)c2)C1", "note": "[Example 155, 2-(4-((1S,4S)-2-oxa-5-azabicyclo[2.2.2]octan-5-yl)phenyl)-N—((R)-1-(5-(trifluoromethyl)pyridin-3-yl)pyrrolidin-3-yl)acetamide]", "IC50": 75}, {"smiles": "O=C(Cc1ccc(N2C[C@@H]3CC[C@H]2CO3)cc1)N[C@@H]1CCN(c2ccc(C(F)(F)F)nc2)C1", "note": "[Example 156, 2-(4-((1S,4S)-2-oxa-5-azabicyclo[2.2.2]octan-5-yl)phenyl)-N—((R)-1-(6-(trifluoromethyl)pyridin-3-yl)pyrrolidin-3-yl)acetamide]", "IC50": 1300}, {"smiles": "O=C(Cc1ccc2ncsc2c1)N[C@@H]1CCN(c2cncc(C(F)(F)F)c2)C1", "note": "[Example 157, (R)-2-(benzo[d]thiazol-6-yl)-N-(1-(5-(trifluoromethyl)pyridin-3-yl)pyrrolidin-3-yl)acetamide]", "IC50": 280}, {"smiles": "O=C(Cc1ccc2ncsc2c1)N[C@@H]1CCN(c2ccc(C(F)(F)F)nc2)C1", "note": "[Example 158, (R)-2-(benzo[d]thiazol-6-yl)-N-(1-(6-(trifluoromethyl)pyridin-3-yl)pyrrolidin-3-yl)acetamide]", "IC50": 1100}, {"smiles": "O=C(Cc1ccc2[nH]ncc2c1)N[C@@H]1CCN(c2cncc(C(F)(F)F)c2)C1", "note": "[Example 159, (R)-2-(1H-indazol-5-yl)-N-(1-(5-(trifluoromethyl)pyridin-3-yl)pyrrolidin-3-yl)acetamide]", "IC50": 510}, {"smiles": "O=C(Cc1ccc2[nH]ncc2c1)N[C@@H]1CCN(c2ccc(C(F)(F)F)nc2)C1", "note": "[Example 160, (R)-2-(1H-indazol-5-yl)-N-(1-(6-(trifluoromethyl)pyridin-3-yl)pyrrolidin-3-yl)acetamide]", "IC50": 6400}, {"smiles": "O=C(Cc1ccc(C2CC2)cc1)NC1(C(F)(F)F)CCN(c2cncc(C(F)(F)F)c2)C1", "note": "(centres unmarked) [Example 161, 2-(4-cyclopropylphenyl)-N-(3-(trifluoromethyl)-1-(5-(trifluoromethyl)pyridin-3-yl)pyrrolidin-3-yl)acetamide]", "IC50": 260}, {"smiles": "O=C(Cc1ccc(C(F)(F)F)cc1)NC1(C(F)(F)F)CCN(c2cncc(C(F)(F)F)c2)C1", "note": "(centres unmarked) [Example 162, N-(3-(trifluoromethyl)-1-(5-(trifluoromethyl)pyridin-3-yl)pyrrolidin-3-yl)-2-(4-(trifluoromethyl)phenyl)acetamide]", "IC50": 560}, {"smiles": "O=C(Cc1ccc2[nH]nnc2c1)N[C@@H]1CCN(c2cncc(C(F)(F)F)c2)C1", "note": "[Example 163, (R)-2-(1H-benzo[d][1,2,3]triazol-5-yl)-N-(1-(5-(trifluoromethyl)pyridin-3-yl)pyrrolidin-3-yl)acetamide]", "IC50": 1400}, {"smiles": "O=C(Cc1ccc2[nH]nnc2c1)N[C@@H]1CCN(c2ccc(C(F)(F)F)nc2)C1", "note": "[Example 164, (R)-2-(1H-benzo[d][1,2,3]triazol-5-yl)-N-(1-(6-(trifluoromethyl)pyridin-3-yl)pyrrolidin-3-yl)acetamide]", "IC50": 2900}, {"smiles": "Cn1nnc2cc(CC(=O)N[C@@H]3CCN(c4cncc(C(F)(F)F)c4)C3)ccc21", "note": "[Example 167, (R)-2-(1-methyl-1H-benzo[d][1,2,3]triazol-5-yl)-N-(1-(5-(trifluoromethyl)pyridin-3-yl)pyrrolidin-3-yl)acetamide]", "IC50": 160}, {"smiles": "Cn1nnc2cc(CC(=O)N[C@@H]3CCN(c4ccc(C(F)(F)F)nc4)C3)ccc21", "note": "[Example 168, (R)-2-(1-methyl-1H-benzo[d][1,2,3]triazol-5-yl)-N-(1-(6-(trifluoromethyl)pyridin-3-yl)pyrrolidin-3-yl)acetamide]", "IC50": 170}, {"smiles": "O=C(Cc1ccc(C2CC2)cc1)NC1CN(c2ccc(F)c(C(F)(F)F)c2)C1", "note": "[Example 170, 2-(4-cyclopropylphenyl)-N-(1-(4-fluoro-3-(trifluoromethyl)phenyl)azetidin-3-yl)acetamide]", "IC50": 880}, {"smiles": "O=C(Cc1ccc(Br)cc1)N[C@@H]1CCN(c2cncc(C(F)(F)F)c2)C1", "note": "[Example 171, (R)-2-(4-bromophenyl)-N-(1-(5-(trifluoromethyl)pyridin-3-yl)pyrrolidin-3-yl)acetamide]", "IC50": 110}, {"smiles": "O=C(Cc1ccc(C2CC2)cc1)N[C@@H]1CCN(c2nc3ccc(F)cc3s2)C1", "note": "[Example 172, (R)-2-(4-cyclopropylphenyl)-N-(1-(6-fluorobenzo[d]thiazol-2-yl)pyrrolidin-3-yl)acetamide]", "IC50": 550}, {"smiles": "O=C(Cc1ccc(C2CC2)cc1)N[C@@H]1CCN(c2ncc(Br)s2)C1", "note": "[Example 173, (R)—N-(1-(5-bromothiazol-2-yl)pyrrolidin-3-yl)-2-(4-cyclopropylphenyl)acetamide]", "IC50": 1100}, {"smiles": "O=C(Cc1ccc(C2CC2)cc1)N[C@@H]1CCN(c2ccc(F)c(C(F)(F)F)c2)C1", "note": "[Example 174, (R)-2-(4-cyclopropylphenyl)-N-(1-(4-fluoro-3-(trifluoromethyl)phenyl)pyrrolidin-3-yl)acetamide]", "IC50": 200}, {"smiles": "COc1cccc(N2CC[C@@H](NC(=O)Cc3ccc(C4CC4)cc3)C2)c1", "note": "[Example 175, (R)-2-(4-cyclopropylphenyl)-N-(1-(3-methoxyphenyl)pyrrolidin-3-yl)acetamide]", "IC50": 490}, {"smiles": "O=C(Cc1ccc(N2CCC(F)(F)C2)cc1)N[C@@H]1CCN(c2cncc(C(F)(F)F)c2)C1", "note": "[Example 176, (R)-2-(4-(3,3-difluoropyrrolidin-1-yl)phenyl)-N-(1-(5-(trifluoromethyl)pyridin-3-yl)pyrrolidin-3-yl)acetamide]", "IC50": 7.3}, {"smiles": "CCOC(=O)C(C)(C)Oc1cccc(N2CC[C@@H](NC(=O)Cc3ccc(C4CC4)cc3)C2)c1", "note": "[Example 177, Ethyl (R)-2-(3-(3-(2-(4-cyclopropylphenyl)acetamido)pyrrolidin-1-yl)phenoxy)-2-methylpropanoate]", "IC50": 300}, {"smiles": "O=C(Cc1ccc(C2CC2)cc1)N[C@@H]1CCN(c2cccc(O)c2)C1", "note": "[Example 178, (R)-2-(4-cyclopropylphenyl)-N-(1-(3-hydroxyphenyl)pyrrolidin-3-yl)acetamide]", "IC50": 590}, {"smiles": "O=C(Cc1ccc(C2CC2)cc1)N[C@@H]1CCN(c2cccc(C(F)(F)F)n2)C1", "note": "[Example 179, (R)-2-(4-cyclopropylphenyl)-N-(1-(6-(trifluoromethyl)pyridin-2-yl)pyrrolidin-3-yl)acetamide]", "IC50": 240}, {"smiles": "COc1cc(OC)nc(N2CC[C@@H](NC(=O)Cc3ccc(C4CC4)cc3)C2)n1", "note": "[Example 180, (R)-2-(4-cyclopropylphenyl)-N-(1-(4,6-dimethoxypyrimidin-2-yl)pyrrolidin-3-yl)acetamide]", "IC50": 2100}, {"smiles": "O=C(Cc1ccc(N2CCOCC2)cc1)N[C@@H]1CCN(c2cncc(C(F)(F)F)c2)C1", "note": "[Example 181, (R)-2-(4-morpholinophenyl)-N-(1-(5-(trifluoromethyl)pyridin-3-yl)pyrrolidin-3-yl)acetamide]", "IC50": 25}, {"smiles": "O=C(Cc1ccc(C2CC2)cc1)N[C@@H]1CCN(c2cc(C(F)(F)F)ccn2)C1", "note": "[Example 182, (R)-2-(4-cyclopropylphenyl)-N-(1-(4-(trifluoromethyl)pyridin-2-yl)pyrrolidin-3-yl)acetamide]", "IC50": 720}, {"smiles": "O=C(Cc1ccc(C(F)(F)F)cc1)N[C@@H]1CCN(c2ccc(C(F)(F)F)nc2)C1", "note": "[Example 183, (R)-2-(4-(trifluoromethyl)phenyl)-N-(1-(6-(trifluoromethyl)pyridin-3-yl)pyrrolidin-3-yl)acetamide]", "IC50": 200}, {"smiles": "O=C(Cc1ccc(C(F)(F)F)cc1)N[C@@H]1CCN(c2ccc(F)c(C(F)(F)F)c2)C1", "note": "[Example 184, (R)—N-(1-(4-fluoro-3-(trifluoromethyl)phenyl)pyrrolidin-3-yl)-2-(4-(trifluoromethyl)phenyl)acetamide]", "IC50": 3000}]}]}
